Measured values as given in US20260374793A1, “MITOCHONDRIA SPECIFIC TRANSCRIPTION INHIBITORS” (LUNELLA BIOTECH, INC., priority 2023, published 2026).

Columns and labels:
MDA-MB-231 cells [1] = test: 2D colony formation, MDA-MB-231; assay type: cell-based
Text: FIGS. 4A and 4B show the effect of Compound [I] at different concentrations on MDA-MB-231 colony formation (A) representative phase images of 2D-colonies, and (B) expressed in terms of colony formation relative to the control. […] Bar graphs are shown as the mean±SEM; t-test, two-tailed test: **** P<0.0001.
(§1) FIGS. 5A and 5B show IC50 curves for Compound [I] calculated using GraphPad Prism. The results are based on mammosphere formation assay of Compound [I] on both colonies and spheres, for MCF-7 cells (FIG. 5A), and for MDA-MB-231 cells (FIG. 5B).

MCF-7 cells [2] = test: 2D colony formation, MCF-7; assay type: cell-based, human
Text: FIGS. 2A and 2B show the effect of Compound [I] at different concentrations on MCF-7 colony formation (A) in petri dishes, and (B) expressed in terms of colony formation relative to the control.
as §1

MCF-7 cells [3] = test: SRB cell viability assay, MCF-7; assay type: cell-based; details: Homo sapiens, MCF7, cytotoxic starting at, FIG. 1B, read-out: concentration at which cytotoxicity starts
Text: (§2) The mitochondria specific transcription inhibitor (MSTI) compounds disclosed herein represent a new class of compounds having exceptional selectivity and activity towards cancer cells. Embodiments of the MSTI compounds disclosed herein may be used as therapeutic agent to selectively eradicate CSCs for treating and/or preventing tumor recurrence and/or metastasis. […] This assay measures the amount of residual protein that adheres to tissue culture dishes and is a surrogate marker of cell viability.
(§3) Reagents and Model Cell Lines: It should be apparent that other cell lines may be used without departing from the present approach. The human breast adenocarcinoma cell line MCF-7 was from the American Type Culture Collection (ATCC). hTERT-BJ1 cells were from Clontech, Inc. MCF-7 and hTERT-BJ 1 cells were grown in DMEM supplemented with 10% fetal bovine serum, GlutaMAX and 1% penicillin-streptomycin and incubated at 37C in a humidified 5% C02 incubator. The medium was changed 2-3 times/week.
(§4) The present approach includes methods of confirming cell viability. Persons of skill in the art may select one or more methods for confirming cell viability suitable for the particular embodiment. […] Finally, the protein-bound dye was dissolved in a 10 mM Tris, pH 8.8 solution and read using the plate reader at 540-nm. […]

MCF-7 cells [4] = test: 3D anchorage independent growth (mammosphere formation) assay, MCF-7; assay type: cell-based, human
Text: The following paragraphs summarize data for Compound [I]. It should be appreciated that preliminary results for other embodiments are consistent with the results for Compound [I], but analysis is ongoing. FIGS. 1A-1C show mammosphere formation results, SRB assay results on MCF-7 cells, and SRB assay results on BJ1-hTERT cells, for different concentrations of Compound [I]. The asterisks indicate P-value, with ** indicating P<0.01, *** indicating P<0.001, and **** indicating P <0.0001. […] FIGS. 1B and 1C show results of the SRB assay for (B) MCF-7 cells and (C) hTERT-BJ1 cells.
as §1
(§5) 3D Anchorage Independent Growth Assay: This assay is also referred to as the mammosphere formation assay. A single-cell suspension was prepared using enzymatic, and manual disaggregation (25-g needle). Then, cells were plated at a density of 500 cells/cm^2 in mammosphere medium (DMEM-F12+1× B-27 Plus Supplement+20 ng/ml EGF+Pen/Strep) under non-adherent conditions, in culture dishes pre-coated with (2-hydroxyethylmethacrylate) (poly-HEMA, Sigma Aldrich Inc.), called “mammosphere plates.” Cells were grown for 5 days and maintained in a humidified incubator at 37 °C. After 5 days of culture, 3D-mammospheres >50 μm were counted using an eye piece (“graticule”), and the percentage of cells plated which formed spheres was calculated and is referred to as percent mammosphere formation, and was normalized to one (1=100% MFE). 3D mammosphere formation efficiency (MFE) was analyzed in both the ATP-low and ATP-high sub-populations of cells. All 3D mammosphere experiments were performed in triplicate, at least 3 times independently.

MDA-MB-231 cells [5] = test: 3D anchorage independent growth (mammosphere formation) assay, MDA-MB-231; assay type: cell-based
Procedure: Bar graphs are shown as the mean±SEM; t-test, two-tailed test: * P<0.05, ** P<0.01, **** P<0.0001.
as §1, §5

[6] = SRB cell viability assay, hTERT-BJ1; assay type: cell-based; details: human, hTERT-BJ1 cells, cytotoxic starting at about, FIG. 1C, read-out: concentration at which cytotoxicity starts
Text: as §2, §3, §4

[7] = In vivo chicken embryo toxicity assessment (CAM assay); details: chicken, embryo
MCF-7 cells [8] = test: Seahorse XF96 oxygen consumption rate (OCR), mitochondrial respiration, MCF-7; assay type: cell-based, human
Procedure: FIGS. 6A-6D show mitochondrial respiration, basal respiration, maximal respiration, and ATP production, respectively, for different concentrations of Compound [I] on MCF-7 cells. The metabolic profile MCF-7 was performed using the Seahorse XF96 Analyzer after 6 days of treatment with Compound [I].

MDA-MB-231 cells [9] = test: CAM assay in chicken eggs, spontaneous tumor metastasis (qPCR of human Alu sequences); assay type: in vivo; details: daily for 8 days, Lower CAM, FIG. 8B
Procedure: The CAM assay was used in chicken eggs to quantitatively measure spontaneous tumor metastasis in MDA-MB-231 cells. An inoculum of 1×10^6 MDA-MB-231 cells was added onto the Upper CAM of each egg on Day 9 and then eggs were then randomized into groups. On day 10, tumors were detectable and they were then treated daily for 8 days, with vehicle alone (1% DMSO in PBS), or Compound [I]. After 8 days of drug administration, the Lower CAM was collected to evaluate the number of metastatic cells and analyzed by qPCR with specific primers for Human Alu sequences. […] Bar graph is shown as the mean±SEM; t-test, two tailed test: ns P >0.05, ** P <0.01.

MDA-MB-231 cells [10] = test: Chorio-allantoic membrane (CAM) assay in chicken eggs, tumor growth; assay type: in vivo; details: daily for 8 days; tumors weighed day E18; FIG. 8A
Procedure: The well-established chorio-allantoic membrane (CAM) assay in chicken eggs were used to quantitatively measure tumor growth in MDA-MB-231 cells. An inoculum of 1×10^6 MDA-MB-231 cells was added onto the Upper CAM of each egg on Day 9 and then eggs were then randomized into groups. On day 10, tumors were detectable and were then treated daily for 8 days with vehicle alone (1% DMSO in PBS), or Compound [I]. After 8 days of drug administration, on day E18, all tumors were weighed. […] Bar graphs are shown as the mean±SEM; t-test, two tailed test: * P<0.05, **** P<0.0001.

chicken embryo = test: In vivo chicken embryo toxicity assessment (CAM assay)
MCF-7 cells [11] = test: Extracellular acidification rate (ECAR), glycolytic function, MCF-7; assay type: cell-based, human
Text: FIGS. 7A-7D show glycolytic function, glycolysis, glycolytic capacity, and glycolytic reserve, respectively, for different concentrations of Compound [I] on MCF-7 cells.

[12] = system: human cancer cell xenografts; details: oral; cited from earlier work
mice = details: oral; four-week trial in mice; cited from earlier work
[13] = system: mitochondrial RNA polymerase (POLRMT); details: as a POLRMT inhibitor; cited from earlier work

CCN(CC(=O)NCCN(C)C)C(=O)[C@@H](C)Oc1ccc2c(-c3ccc(NC(=O)CCCCCCCCCCC[P+](c4ccccc4)(c4ccccc4)c4ccccc4)cc3Cl)cc(=O)oc2c1.[Cl-] [Compound [I], [12-[3-chloro-4-[7-[(1R)-2-[2-[2-(dimethylamino)ethylamino]-2-oxo-ethyl]-ethyl-amino]-1-methyl-2-oxo-ethoxy]-2-oxo-chromen-4-yl]anilino]-12-oxo-dodecyl]-triphenyl-phosphonium chloride]
IC50 (MDA-MB-231 cells [1]; Homo sapiens, MDA-MB-231 colonies, GraphPad Prism, FIG. 5B): 1.5 µM
IC50 (MCF-7 cells [2]; Homo sapiens, MCF7, MCF-7 colonies, GraphPad Prism, FIG. 5A): 0.7 µM
IC100 (MCF-7 cells [2]; Homo sapiens, MCF7, complete inhibition, FIG. 2B, read-out: concentration from which MCF-7 colony formation is completely inhibited): 2.5 µM
MCC (MCF-7 cells [3]): 1000 nM
inhibition at 2.5 µM (MCF-7 cells [4]; Homo sapiens, MCF7, 2.5 μM, FIG. 1A, read-out: inhibition of MCF-7 spheres): > 50%
IC50 (MCF-7 cells [4]; Homo sapiens, MCF7, MCF-7 spheres, GraphPad Prism, FIG. 5A): 3.2 µM
IC50 (MDA-MB-231 cells [5]; Homo sapiens, MDA-MB-231 spheres, GraphPad Prism, FIG. 5B): 8.2 µM
MCC [6]: ~2500 nM
survival at 100 µM ([7]; 100 μM, read-out: % Alive): 100%
mortality at 100 µM ([7]; 100 μM, read-out: % Dead): 0%
survival at 250 µM ([7]; 250 μM, read-out: % Alive): 100%
mortality at 250 µM ([7]; 250 μM, read-out: % Dead): 0%
survival at 500 µM ([7]; 500 μM, read-out: % Alive): 87.5%
mortality at 500 µM ([7]; 500 μM, read-out: % Dead): 12.5%

CCN(CC(=O)NCCN(C)C)C(=O)[C@@H](C)Oc1ccc2c(-c3ccc(NC(=O)CCCCCCCCCCC[P+](c4ccccc4)(c4ccccc4)c4ccccc4)cc3Cl)cc(=O)oc2c1.[Cl-] [Compound [I]]
oxygen consumption rate (OCR) (MCF-7 cells [8]; 0.5 μM and 1 μM, after 6 days of treatment, FIG. 6A): reduction
basal respiration (MCF-7 cells [8]; 0.5 μM and 1 μM, after 6 days of treatment, FIG. 6B): decreases
maximal respiration (MCF-7 cells [8]; 0.5 μM and 1 μM, after 6 days of treatment, FIG. 6C): decreases
ATP production (MCF-7 cells [8]; 0.5 μM and 1 μM, after 6 days of treatment, FIG. 6D): decreases
mitochondrial respiration (MCF-7 cells [8]; overall conclusion): specifically inhibits mitochondrial respiration
MDA-MB-231 colony formation (MDA-MB-231 cells [1]; 2D colonies, FIGS. 4A-4B, **** P<0.0001): significantly decreases
effect on colony formation versus sphere formation (MDA-MB-231 cells [1]; MDA-MB-231, from IC50 values of Table 1): more effective on colony formation, as compared to sphere formation
metastasis (MDA-MB-231 cells [9]): targets and prevent cancer metastasis
tumor growth (MDA-MB-231 cells [10]): potently inhibits tumor growth
MCF-7 colony formation (MCF-7 cells [2]; 2D colonies, FIG. 2A): significantly decreased
effect on colony formation versus sphere formation (MCF-7 cells [2]; MCF-7, from IC50 values of Table 1): more effective on colony formation, as compared to sphere formation
inhibition of MCF-7 spheres (MCF-7 cells [4]; 10 μM, FIG. 1A): near complete inhibition
inhibition of MCF-7 spheres (MCF-7 cells [4]; at all concentrations, FIG. 1A): inhibition of MCF-7 spheres at all concentrations
MDA-MB-231 3D mammosphere formation (MDA-MB-231 cells [5]; FIG. 3A): significantly decreased
Alive (chicken embryo; 100 μM, of 17 embryos): 17
Dead (chicken embryo; 100 μM, of 17 embryos): 0
Alive (chicken embryo; 250 μM, of 16 embryos): 16
Dead (chicken embryo; 250 μM, of 16 embryos): 0
Alive (chicken embryo; 500 μM, of 16 embryos): 14
Dead (chicken embryo; 500 μM, of 16 embryos): 2
toxicity towards normal cells (chicken embryo; at concentrations several orders of magnitude above those with potent activity, FIG. 9): not toxic towards normal cells
glycolysis (MCF-7 cells [11]; FIG. 7B): No significant changes
glycolytic capacity (MCF-7 cells [11]; FIG. 7C): No significant changes
glycolytic reserve (MCF-7 cells [11]; FIG. 7D): No significant changes
glycolysis (overall conclusion) (MCF-7 cells [11]; FIGS. 7A-7D): does not affect glycolysis

C[C@@H](Oc1ccc2c(-c3ccc(F)cc3Cl)cc(=O)oc2c1)C(=O)N1CCC[C@H](C(=O)O)C1 [POLRMT inhibitor]
anti-tumor effects [12]: strong anti-tumor effects
OXPHOS dysfunction or toxicity (mice): no evidence of OXPHOS dysfunction or toxicity
mitochondrial DNA expression [13]: inhibits mitochondrial DNA expression
